What was measured:
[1] = target: T1, human recombinant MAOB enzyme (hMAOB) (Homo sapiens, UniProt P27338); assay: Human recombinant MAOB enzyme activity (Amplex Red, fluorimetric); assay type: biochemical; details: for inhibition at 1 µM: read-out: hMAOB inhibitory effect (decrease of enzyme activity); for IC50: read-out: IC50 (EC50), (µM ± SD) hMAOB
T1 construct: purchased
T1 sequence (P27338 1-520): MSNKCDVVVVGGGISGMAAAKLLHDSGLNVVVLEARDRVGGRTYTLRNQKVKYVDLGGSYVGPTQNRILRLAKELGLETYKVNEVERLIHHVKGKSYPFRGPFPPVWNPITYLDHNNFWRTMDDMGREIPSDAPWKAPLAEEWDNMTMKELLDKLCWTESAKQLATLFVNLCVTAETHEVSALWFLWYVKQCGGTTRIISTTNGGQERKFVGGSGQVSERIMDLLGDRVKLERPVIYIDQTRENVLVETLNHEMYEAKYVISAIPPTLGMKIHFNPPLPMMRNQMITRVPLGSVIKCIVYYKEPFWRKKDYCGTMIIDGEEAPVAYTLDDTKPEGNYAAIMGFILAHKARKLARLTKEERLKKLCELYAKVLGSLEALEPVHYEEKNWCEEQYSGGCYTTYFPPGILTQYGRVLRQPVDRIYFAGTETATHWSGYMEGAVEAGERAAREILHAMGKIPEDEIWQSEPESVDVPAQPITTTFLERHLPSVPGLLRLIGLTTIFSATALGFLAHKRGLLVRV
Experimental: (§1) Working solutions of the test substances, reagents, and human recombinant MAOA/B enzyme (hMAOA/B) were prepared in a reaction buffer according to the manufacturer’s instructions. The substances were applied at a final concentration of 1 µM. The substances, together with hMAOA/B, were placed in a 96-well plate (eight samples for each substance), and the plate was placed in an incubator for 30 min (in the dark, at 37 °C). The activity of recombinant human MAOA/B was determined fluorimetrically at two wavelengths (570 nm and 690 nm) with fluorimetric readings performed in a Synergy 2 Microplate Reader. Tyramine hydrochloride was used as the substrate. The activity was determined by detecting H2O2 production. This production is reported by binding to horseradish peroxidase using N-acetyl-3,7-dihydroxyphenoxazine (AmplexRed, Thermo Fisher Scientific, Waltham, MA, USA).

rat brain mitochondria [2] = assay: MDA production in brain mitochondria, substances applied alone; assay type: cell-based; details: 100 µM, vs untreated mitochondria
Experimental: To the mitochondria, 0.3 mL of 0.2% thiobarbituric acid and 0.25 mL of sulfuric acid (0.05 M) were added, and the mixture was boiled for 30 min. After boiling, the tubes were placed on ice, and 0.4 mL of n-butanol was added to each tube, which was then centrifuged at 3500× g for 10 min. The amount of MDA was determined spectrophotometrically at 532 nm.

rat brain microsomes [3] = assay: MDA production in brain microsomes, substances applied alone; assay type: cell-based; details: 100 µM, vs untreated microsomes
Experimental: The brain was homogenized in nine volumes of 0.1 M Tris buffer containing 0.1 mM dithiothreitol, 0.1 mM phenylmethylsulfonyl fluoride, 0.2 mM EDTA, 1.15% KCl, and 20% (v/v) glycerol (pH 7.4). The resulting homogenate was centrifuged twice at 17,000× g for 30 min. The supernatants from the two centrifugations were pooled and centrifuged twice at 100,000× g for 1 h. The pellet was then frozen in 0.1 M Tris buffer.

rat brain microsomes [4] = details: 100 µM combined with Fe2+/AA
[5] = target: T2, human recombinant MAOA enzyme (hMAOA) (Homo sapiens, UniProt P21397); assay: Human recombinant MAOA enzyme activity (Amplex Red, fluorimetric); assay type: biochemical; details: for IC50: read-out: IC50 (EC50), (µM ± SD) hMAOA
T2 construct: purchased
T2 sequence (P21397 1-527): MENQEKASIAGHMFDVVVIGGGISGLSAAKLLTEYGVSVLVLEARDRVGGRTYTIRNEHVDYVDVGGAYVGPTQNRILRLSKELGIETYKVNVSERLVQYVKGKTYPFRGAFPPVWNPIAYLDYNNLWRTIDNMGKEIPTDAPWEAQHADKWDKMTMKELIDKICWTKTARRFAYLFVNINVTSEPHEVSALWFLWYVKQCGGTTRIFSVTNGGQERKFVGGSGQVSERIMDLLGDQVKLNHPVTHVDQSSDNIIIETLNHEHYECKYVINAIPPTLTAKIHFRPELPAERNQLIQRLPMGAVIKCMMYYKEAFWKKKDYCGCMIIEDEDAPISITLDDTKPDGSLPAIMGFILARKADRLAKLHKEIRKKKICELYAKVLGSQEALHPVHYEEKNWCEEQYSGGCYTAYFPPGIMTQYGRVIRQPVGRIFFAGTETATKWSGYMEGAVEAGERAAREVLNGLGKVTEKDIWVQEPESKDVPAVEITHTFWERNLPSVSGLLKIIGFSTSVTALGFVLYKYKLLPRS
Experimental: as §1

rat brain mitochondria [6] = assay: GSH level in brain mitochondria, substances applied alone; details: 100 µM, vs untreated mitochondria
[7] = test system: Rotenone-induced model of Parkinsonism in mice; assay: Rotenone-induced model of Parkinsonism in mice, brain histopathology (H&E); assay type: in vivo
Experimental: The histological morphology of the mouse brains, mainly the areas of the […] and cerebellum, was examined microscopically.
The samples from mouse brains were fixed in 10% buffered neutral formalin solution. The fixed materials were dehydrated in ascending grades of alcohol: 50°, 60°, 70°, 80°, 90°, 96°, and absolute alcohol. After dehydration, the samples were cleared with xylene and embedded in paraffin blocks. Sections with a thickness of 5 μm were prepared using a rotary microtome. The sections were attached to slides using histological glue, processed with xylene, rehydrated using a descending alcohol row–absolute alcohol, 96°, 90°, 80°, 70°, 60°, and 50°, and finally stained with Hematoxylin-Eosin [57]. Microscopic examination and photography were performed using a Levenhuk D740T light microscope with an integrated camera.

rat brain mitochondria [8] = details: 100 µM combined with t-BuOOH
MAOB = test system: MAOB; set-up: method as in PMID 36500572; details: 1 μmol; cited from earlier work
[9] = 150 µM, vs untreated synaptosomes
[10] = 100 µM with 6-OHDA 150 µM, compared to the toxic agent

SMILES | increase of MDA production in brain mitochondria vs control (rat brain mitochondria [2]) | increase of MDA production in brain microsomes vs control (rat brain microsomes [3]) | decrease of GSH level in brain mitochondria vs control (rat brain mitochondria [6]) | further results
NCCc1cc(O)c(O)cc1O [6-OHDA, 6-hydroxydopamine, reference compound] | – | – | – | decrease of GSH level in synaptosomes by the toxic agent alone (rat brain synaptosomes; [9]): 50%; decrease of synaptosomal viability by the toxic agent alone (rat brain synaptosomes; [9]): 50%
CCOC(=O)c1cc(-c2ccc(Br)cc2)n(CCCC(=O)N/N=C/c2ccccc2)c1C [15a, (E)-Ethyl 1-(4-(2-benzylidenehydrazinyl)-4-oxobutyl)-5-(4-bromophenyl)-2-methyl-1H-pyrrole-3-carboxylate] | 59% | 52% | 15% | SI: hMAOB selectivity index = IC50(hMAOA)/IC50(hMAOB) [1]: >289; inhibition at 1 µM ([1]; 1 µM, vs control (pure hMAOB)): 50%; IC50 [1]: 0.692 µM; antioxidant effect vs Fe2+/AA (MDA production) (rat brain microsomes [4]): most prominent effect on MDA production; IC50 [5]: > 200 µM
CCOC(=O)c1cc(-c2ccc(Br)cc2)n(CCCC(=O)N/N=C/c2ccccc2O)c1C [15b, (E)-Ethyl 5-(4-bromophenyl)-1-(4-(2-(2-hydroxybenzylidene)hydrazinyl)-4-oxobutyl)-2-methyl-1H-pyrrole-3-carboxylate] | 99% | 121% | 25% | –
CCOC(=O)c1cc(-c2ccc(Br)cc2)n(CCCC(=O)N/N=C/c2ccccc2F)c1C [15c, (E)-Ethyl 5-(4-bromophenyl)-1-(4-(2-(2-fluorobenzylidene)hydrazinyl)-4-oxobutyl)-2-methyl-1H-pyrrole-3-carboxylate] | 110% | 132% | 25% | –
CCOC(=O)c1cc(-c2ccc(Br)cc2)n(CCCC(=O)N/N=C/c2cccc(F)c2)c1C [15d, (E)-Ethyl 5-(4-bromophenyl)-1-(4-(2-(3-fluorobenzylidene)hydrazinyl)-4-oxobutyl)-2-methyl-1H-pyrrole-3-carboxylate] | 57% | 63% | 10% | SI: hMAOB selectivity index = IC50(hMAOA)/IC50(hMAOB) [1]: >471; inhibition at 1 µM ([1]; 1 µM, vs control (pure hMAOB)): 60%; IC50 [1]: 0.425 µM; preservation of GSH level vs 6-OHDA (rat brain synaptosomes; [10]): 20%; preservation of synaptosomal viability vs 6-OHDA (rat brain synaptosomes; [10]): 15%; brain histology, in combination with rotenone ([7]; mice treated with rotenone plus 15d, light microscopy): preserved histoarchitectonics; brain histology, treated alone ([7]; mouse, in vivo): no microscopically visible changes; neuroprotective effect vs t-BuOOH (GSH level and MDA production) (rat brain mitochondria [8]): most pronounced neuroprotection; IC50 [5]: > 200 µM
CCOC(=O)c1cc(-c2ccc(Br)cc2)n(CCCC(=O)N/N=C/c2ccc(OC)cc2)c1C [15e, (E)-Ethyl 5-(4-bromophenyl)-1-(4-(2-(4-methoxybenzylidene)hydrazinyl)-4-oxobutyl)-2-methyl-1H-pyrrole-3-carboxylate] | 119% | 149% | 20% | –
CCOC(=O)c1cc(-c2ccc(Br)cc2)n(CCCC(=O)N/N=C/c2ccc(N(C)C)cc2)c1C [15f, (E)-Ethyl 5-(4-bromophenyl)-1-(4-(2-(4-(dimethylamio)benzylidene)hydrazinyl)-4-oxobutyl)-2-methyl-1H-pyrrole-3-carboxylate] | 69% | 67% | 15% | SI: hMAOB selectivity index = IC50(hMAOA)/IC50(hMAOB) [1]: 1.16; hMAOB inhibitory effect (decrease of enzyme activity) ([1]; 1 µM, vs control (pure hMAOB)): 45%; IC50 [1]: 0.71 µM; hMAOA inhibitory effect (decrease of enzyme activity) ([5]; 1 µM, vs control (pure hMAOA)): 40%; IC50 [5]: 0.821 µM
CCOC(=O)c1cc(-c2ccc(Br)cc2)n(CCCC(=O)N/N=C/c2cccc(C=O)c2)c1C [15g, (E)-Ethyl 5-(4-bromophenyl)-1-(4-(2-(3-formylbenzylidene)hydrazinyl)-4-oxobutyl)-2-methyl-1H-pyrrole-3-carboxylate] | 143% | 158% | 20% | –
CCOC(=O)c1cc(-c2ccc(Br)cc2)n(CC(=O)NN)c1C [compound 11] | – | – | – | MAOB inhibition (MAOB): 26%
CCOC(=O)c1cc(-c2ccc(Br)cc2)n(CCC(=O)NN)c1C [compound 12] | – | – | – | MAOB inhibition (MAOB): 50%
CCOC(=O)c1cc(-c2ccc(Br)cc2)n(CCCC(=O)O)c1C [compound 13, 4-(5-(4-Bromophenyl)-3-(ethoxycarbonyl)-2-methyl-1H-pyrrole-1-yl)butanoic acid] | 79% | 93% | 15% | –
CCOC(=O)c1cc(-c2ccc(Br)cc2)n(CCCC(=O)NN)c1C [compound 15, Ethyl 5-(4-bromophenyl)-1-(4-hydrazinyl-4-oxobutyl)-2-methyl-1H-pyrrole-3-carboxylate] | 73% | – | 25% | –
C=C(C)[C@H]1Cc2c(ccc3c2O[C@@H]2COc4cc(OC)c(OC)cc4[C@@H]2C3=O)O1 [rotenone, reference compound] | – | – | – | brain histology, rotenone alone ([7]; cerebral cortex of mice treated with rotenone): distinct degenerative-necrotic changes

Reference: publication PMC12348509, “Classical Paal-Knorr Cyclization for Synthesis of Pyrrole-Based Aryl Hydrazones and In Vitro/In Vivo Evaluation on Pharmacological Models of Parkinson’s Disease” (Molecules, 2025)
